Key:
[1] = target: T1, 7β-HSDH obtainable from Collinsella aerofaciens DSM 3979 (Collinsella aerofaciens, UniProt A4ECA9); assay: Kinetic parameters of 7β-HSDH for substrates/cofactors
T1 sequence (A4ECA9 1-263): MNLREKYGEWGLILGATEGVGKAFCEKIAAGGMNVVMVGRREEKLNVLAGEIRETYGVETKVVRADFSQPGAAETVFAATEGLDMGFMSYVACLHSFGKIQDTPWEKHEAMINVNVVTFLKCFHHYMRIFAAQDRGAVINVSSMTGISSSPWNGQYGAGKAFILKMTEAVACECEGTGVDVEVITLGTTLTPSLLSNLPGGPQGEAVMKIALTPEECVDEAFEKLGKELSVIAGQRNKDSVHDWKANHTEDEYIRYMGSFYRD

E. coli BL21(DE3) = assay: Incubation of cholic acid with E. coli culture, HPLC detection of the oxidation product; assay type: cell-based; details: 20 mM cholic acid added to 5 ml of culture
[2] = system: E. coli BL21(DE3) Δ7α-HSDH; assay: Incubation of cholic acid with knockout strain culture, HPLC detection of the oxidation product; assay type: cell-based; details: 20 mM cholic acid added to 5 ml of culture
[3] = substrate: C[C@H](CCC(=O)O)[C@H]1CC[C@H]2[C@@H]3C(=O)C[C@@H]4CC(=O)CC[C@]4(C)[C@H]3CC(=O)[C@]12C; assay: purified protein, by the assay type; details: other: substrate/cofactor of 7β-HSDH
[4] = substrate: C[C@H](CCC(=O)O)[C@H]1CC[C@H]2[C@@H]3[C@@H](O)C[C@@H]4C[C@H](O)CC[C@]4(C)[C@H]3CC[C@]12C; assay: purified protein, by the assay type; details: other: substrate/cofactor of 7β-HSDH

C[C@H](CCC(=O)O)[C@H]1CC[C@H]2[C@@H]3C(=O)C[C@@H]4C[C@H](O)CC[C@]4(C)[C@H]3CC[C@]12C [7-keto-LCA, 7-Ketolithocholic acid]
kcat [1]: 950.77 1 μmol/(μmol × min) | Vmax ([1]; 1 U = 1 μmol/min): 30.77 U/mg protein

C[C@H](CCC(=O)O)[C@H]1CC[C@H]2[C@@H]3[C@H](O)C[C@@H]4C[C@H](O)CC[C@]4(C)[C@H]3C[C@H](O)[C@]12C [cholic acid, Cholic acid]
7α-HSDH activity against cholic acid (oxidation to 7-keto-3,12-dihydroxycholanic acid) (E. coli BL21(DE3)): clearly showed 7α-HSDH activity | oxidation product 7-keto-3,12-dihydroxycholanic acid detected by HPLC [2]: No oxidation product

B1: 7β-HSDH obtainable from Collinsella aerofaciens DSM 3979 (Collinsella aerofaciens ATCC 25986) (protein)
chain: T1 sequence (A4ECA9 1-263)
Km [3]: 9.23 µM | Vmax [3]: 28.3 µmol/min/mg | Km [4]: 6.23 µM | Vmax [4]: 38.2 µmol/min/mg
